Reference: patent publication US11149011B2, “Compounds and methods for IDO and TDO modulation, and indications therefor” (Plexxikon Inc., priority 2018, dated 2021)

Tests used:
IDO1 = target: T1, IDO1 (Homo sapiens, UniProt P14902); test: IDO enzymatic assay; format: biochemical; settings: geometric mean; read-out: IDO1 GMean: IC50 (μM) (Biochemical Assay)
T1 construct: His tag (N); made in house; host or cells: E. coli
Description: (§1) Human IDO or TDO with N-terminal His tag is purified in E. coli. The IDO enzymatic assay is performed using 6 nM IDO and 10 μM L-Trp in the presence of 10 mM ascorbic acid, 5 μM methylene blue, 100 nM catalase and 0.01% Tween 20 in 50 mM sodium phosphate buffer (pH 6.5). 19 μL of above reaction mixture is added to wells of 384 well reaction plate containing 1 μL of various concentrations of test compound or DMSO vehicle and incubated for 20 minutes at room temperature. The TDO enzymatic reaction assay is performed using 1 nM TDO and 350 μM L-Trp in the presence of 10 mM ascorbic acid, 0.4 μM methylene blue, 100 nM catalase and 0.01% Tween 20 in 50 mM sodium phosphate buffer (pH 6.5). 19 μL of above reaction mixture is added to wells of 384 well reaction plate containing 1 μL of various concentrations of test compound or DMSO vehicle and incubated for 70 minutes at room temperature. 16 wells containing all the components of reaction mixture and 5% DMSO serve as high control. 16 well containing all the components except enzyme of reaction mixture and 5% DMSO serves as low control. Both IDO and TDO enzymatic reactions are stopped by addition of 4 μL of 30% TCA and incubated 30 minutes at 50° C. to hydrolyze N-formylkynurenine produced by IDO or TDO to kynurenine. Upon measuring the kynurenine level, the percentage inhibition is calculated at individual concentrations relative to high and low controls. The data is analyzed by using nonlinear regression to generate IC50 values.

TDO = target: T2, TDO (Homo sapiens, UniProt P48775); test: TDO enzymatic assay; settings: geometric mean; read-out: TDO GMean: IC50 (μM) (Biochemical Assay)
T2 construct: His tag (N); made in house; host or cells: E. coli
T2 sequence (P48775 whole entry): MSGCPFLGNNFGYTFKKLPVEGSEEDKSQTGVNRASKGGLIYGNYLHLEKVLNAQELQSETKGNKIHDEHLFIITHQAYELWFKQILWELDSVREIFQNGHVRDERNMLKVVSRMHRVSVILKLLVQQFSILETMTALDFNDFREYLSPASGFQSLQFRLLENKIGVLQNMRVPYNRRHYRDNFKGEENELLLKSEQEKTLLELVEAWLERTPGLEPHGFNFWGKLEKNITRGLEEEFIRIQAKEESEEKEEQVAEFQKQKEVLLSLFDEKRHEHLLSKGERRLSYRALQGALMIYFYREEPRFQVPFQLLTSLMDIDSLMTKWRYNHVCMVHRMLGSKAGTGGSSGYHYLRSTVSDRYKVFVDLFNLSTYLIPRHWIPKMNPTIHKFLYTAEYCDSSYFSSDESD
Description: as §1

[1] = target: T3, IDO1-expressing HEK293 cell clones (Homo sapiens, UniProt P14902); test: Cell based kynurenine assay, IDO1-expressing HEK293 cell clones; settings: HEK293 cells, 24 hours of incubation, geometric mean; read-out: HEK293 IDO1 Kynurenine GMean IC50 (μM) (Cellular Assay)
T3 construct: expressed in transfected cells; host or cells: HEK293
T3 sequence (P14902 whole entry): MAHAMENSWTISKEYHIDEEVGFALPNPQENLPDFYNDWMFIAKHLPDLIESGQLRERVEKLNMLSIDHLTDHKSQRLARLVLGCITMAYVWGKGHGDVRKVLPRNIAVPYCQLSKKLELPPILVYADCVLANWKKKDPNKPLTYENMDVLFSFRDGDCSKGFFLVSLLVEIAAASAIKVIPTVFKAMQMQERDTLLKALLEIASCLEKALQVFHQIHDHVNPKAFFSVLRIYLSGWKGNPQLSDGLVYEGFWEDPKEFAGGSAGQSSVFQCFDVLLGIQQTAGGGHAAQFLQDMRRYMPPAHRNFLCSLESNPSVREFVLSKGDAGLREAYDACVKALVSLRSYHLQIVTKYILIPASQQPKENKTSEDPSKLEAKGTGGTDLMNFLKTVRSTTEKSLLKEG
Description: (§2) IDO1-expressing or TDO-expressing HEK293 cell clones are generated upon stable transfection of plasmids expressing human IDO or human TDO under the control of CMV promoter. Cells are selected in DMEM media supplemented with 10% fetal bovine serum and 1 mg/ml G418 at 37° C. in a humidified incubator supplied with 5% CO2. The assays are performed as follows.
(§3) Cells were seeded in a 96 well plate in 50 μL of culture media at a density of 2.5×10^4 per well. Serial dilutions of compounds (in total volume of 50 μL culture media) are added into cells. 4 wells containing 0.2% DMSO treated cells serve as high controls and 4 wells containing media only with 0.2% DMSO serve as low controls. After 24 hours of incubation, the supernatant was transferred to a 384 well reaction plate and the kynurenine level determined. The percentage inhibition at individual concentrations relative to high and low controls is calculated. The data is analyzed by using nonlinear regression to generate IC50 values.

[2] = target: T4, TDO-expressing HEK293 cell clones (Homo sapiens, UniProt P48775); test: Cell based kynurenine assay, TDO-expressing HEK293 cell clones; settings: HEK293 cells, 24 hours of incubation, geometric mean; read-out: HEK293 TDO Kynurenine GMean IC50 (μM) (Cellular Assay)
T4 construct: expressed in transfected cells; host or cells: HEK293
T4 sequence (P48775 whole entry): as the sequence (P48775 whole entry) above
Description: as §2, §3

T1 sequence (P14902 whole entry): as the sequence (P14902 whole entry) above

SMILES	IC50 (IDO1) [µM]	IC50 (TDO) [µM]	IC50 [1] [µM]	IC50 [2] [µM]
CC(C)(C1CCN(C(=O)C2CCOCC2)CC1)C(O)c1cc(Cl)cc2[nH]ncc12 (stereo not drawn) [Compound P-0048, (4-(1-(6-chloro-1H-indazol-4-yl)-1-hydroxy-2-methylpropan-2-yl)piperidin-1-yl)(tetrahydro-2H-pyran-4-yl)methanone]	0.0001 to 10	0.0001 to 10	0.0001 to 10	0.0001 to 10
CC(C)(C1CCN(C(=O)CC2CCOCC2)CC1)C(O)c1cc(Cl)cc2[nH]ncc12 (stereo not drawn) [Compound P-0050, 1-(4-(1-(6-chloro-1H-indazol-4-yl)-1-hydroxy-2-methylpropan-2-yl)piperidin-1-yl)-2-(tetrahydro-2H-pyran-4-yl)ethan-1-one]	0.0001 to 10	0.0001 to 10	0.0001 to 10	0.0001 to 10
CC(C)(C1CCN(C(=O)C2CCC2)CC1)C(O)c1cc(Cl)cc2[nH]ncc12 (stereo not drawn) [Compound P-0052, (4-(1-(6-chloro-1H-indazol-4-yl)-1-hydroxy-2-methylpropan-2-yl)piperidin-1-yl)(cyclobutyl)methanone]	0.0001 to 10	0.0001 to 10	0.0001 to 10	0.0001 to 10
CC(C)(C1CCN(C(=O)c2ccc(C(F)(F)F)nc2)CC1)C(O)c1cc(Cl)cc2[nH]ncc12 (stereo not drawn) [Compound P-0053, (4-(1-(6-chloro-1H-indazol-4-yl)-1-hydroxy-2-methylpropan-2-yl)piperidin-1-yl)(6-(trifluoromethyl)pyridin-3-yl)methanone]	0.0001 to 10	0.0001 to 10	0.0001 to 10	0.0001 to 10
CC(C)ONC(=O)N1CCC(C(C)(C)[C@H](O)c2cc(Cl)cc3cn[nH]c23)CC1 [Compound P-0064, (S)-4-(1-(5-chloro-1H-indazol-7-yl)-1-hydroxy-2-methylpropan-2-yl)-N-isopropoxypiperidine-1-carboxamide]	0.0001 to 10	0.0001 to 10	0.0001 to 10	0.0001 to 10
CC(C)(C1CCN(C(=O)NOCC(F)(F)F)CC1)[C@H](O)c1cc(Cl)cc2cn[nH]c12 [Compound P-0065, (S)-4-(1-(5-chloro-1H-indazol-7-yl)-1-hydroxy-2-methylpropan-2-yl)-N-(2,2,2-trifluoroethoxy)piperidine-1-carboxamide]	0.0001 to 10	0.0001 to 10	0.0001 to 10	0.0001 to 10
CC(C)(C1CCN(C(=O)NOc2ccccc2)CC1)[C@H](O)c1cc(Cl)cc2cn[nH]c12 [Compound P-0066, (S)-4-(1-(5-chloro-1H-indazol-7-yl)-1-hydroxy-2-methylpropan-2-yl)-N-phenoxypiperidine-1-carboxamide]	0.0001 to 10	0.0001 to 10	0.0001 to 10	0.0001 to 10
CCCS(=O)(=O)N1CCC(C(C)(C)C(O)c2cc(Cl)cc3[nH]ncc23)CC1 (stereo not drawn) [Compound P-0071]	0.0001 to 10	0.0001 to 10	0.0001 to 10	0.0001 to 10
CC(C)NC(=O)N1CCC(C(C)(C)C(O)c2cc(Cl)cc3[nH]ncc23)CC1 (stereo not drawn) [Compound P-0074, 4-(1-(6-chloro-1H-indazol-4-yl)-1-hydroxy-2-methylpropan-2-yl)-N-isopropylpiperidine-1-carboxamide]	0.0001 to 10	0.0001 to 10	0.0001 to 10	0.0001 to 10
CCNC(=O)N1CCC(C(C)(C)C(O)c2cc(Cl)cc3[nH]ncc23)CC1 (stereo not drawn) [Compound P-0076, 4-(1-(6-chloro-1H-indazol-4-yl)-1-hydroxy-2-methylpropan-2-yl)-N-ethylpiperidine-1-carboxamide]	0.0001 to 10	0.0001 to 10	0.0001 to 10	0.0001 to 10
CCCNC(=O)N1CCC(C(C)(C)C(O)c2cc(Cl)cc3[nH]ncc23)CC1 (stereo not drawn) [Compound P-0077, 4-(1-(6-chloro-1H-indazol-4-yl)-1-hydroxy-2-methylpropan-2-yl)-N-propylpiperidine-1-carboxamide]	0.0001 to 10	0.0001 to 10	0.0001 to 10	0.0001 to 10

More lines, now with the values ahead:

IC50 (IDO1) [µM]	IC50 (TDO) [µM]	IC50 [1] [µM]	IC50 [2] [µM]	SMILES
0.0001 to 10	0.0001 to 10	0.0001 to 10	0.0001 to 10	COCC(=O)N1CCC(C(C)(C)C(O)c2cc(Cl)cc3[nH]ncc23)CC1 (stereo not drawn) [Compound P-0049, 1-(4-(1-(6-chloro-1H-indazol-4-yl)-1-hydroxy-2-methylpropan-2-yl)piperidin-1-yl)-2-methoxyethan-1-one]
0.0001 to 10	0.0001 to 10	0.0001 to 10	0.0001 to 10	CC(C)(C1CCN(C(=O)CC(F)(F)F)CC1)C(O)c1cc(Cl)cc2[nH]ncc12 (stereo not drawn) [Compound P-0051, 1-(4-(1-(6-chloro-1H-indazol-4-yl)-1-hydroxy-2-methylpropan-2-yl)piperidin-1-yl)-3,3,3-trifluoropropan-1-one]
0.0001 to 10	0.0001 to 10	0.0001 to 10	0.0001 to 10	CCN(CC)CC(=O)N1CCC(C(C)(C)[C@H](O)c2cc(Cl)cc3cn[nH]c23)CC1 [Compound P-0058, (S)-1-(4-(1-(5-chloro-1H-indazol-7-yl)-1-hydroxy-2-methylpropan-2-yl)piperidin-1-yl)-2-(diethylamino)ethan-1-one]
0.0001 to 10	0.0001 to 10	0.0001 to 10	0.0001 to 10	CC(C)(C1CCN(C(=O)CN2CCCC2)CC1)[C@H](O)c1cc(Cl)cc2cn[nH]c12 [Compound P-0059, (S)-1-(4-(1-(5-chloro-1H-indazol-7-yl)-1-hydroxy-2-methylpropan-2-yl)piperidin-1-yl)-2-(pyrrolidin-1-yl)ethan-1-one]
0.0001 to 10	0.0001 to 10	0.0001 to 10	0.0001 to 10	COCCONC(=O)N1CCC(C(C)(C)[C@H](O)c2cc(Cl)cc3cn[nH]c23)CC1 [Compound P-0062, (S)-4-(1-(5-chloro-1H-indazol-7-yl)-1-hydroxy-2-methylpropan-2-yl)-N-(2-methoxyethoxy)piperidine-1-carboxamide]
0.0001 to 10	0.0001 to 10	0.0001 to 10	0.0001 to 10	CN(C)CCONC(=O)N1CCC(C(C)(C)[C@H](O)c2cc(Cl)cc3cn[nH]c23)CC1 [Compound P-0063, (S)-4-(1-(5-chloro-1H-indazol-7-yl)-1-hydroxy-2-methylpropan-2-yl)-N-(2-(dimethylamino)ethoxy)piperidine-1-carboxamide]
0.0001 to 10	0.0001 to 10	0.0001 to 10	0.0001 to 10	CC(C)(N)C(=O)N1CCC(C(C)(C)[C@H](O)c2cc(Cl)cc3cn[nH]c23)CC1 [Compound P-0067, (S)-2-amino-1-(4-(1-(5-chloro-1H-indazol-7-yl)-1-hydroxy-2-methylpropan-2-yl)piperidin-1-yl)-2-methylpropan-1-one]
0.0001 to 10	0.0001 to 10	> 10	0.0001 to 10	CCS(=O)(=O)N1CCC(C(C)(C)C(O)c2cc(Cl)cc3[nH]ncc23)CC1 (stereo not drawn) [Compound P-0072, 1-(6-chloro-1H-indazol-4-yl)-2-(1-(ethylsulfonyl)piperidin-4-yl)-2-methylpropan-1-ol]
0.0001 to 10	0.0001 to 10	> 10	0.0001 to 10	CC(C)(C1CCN(S(=O)(=O)C2CC2)CC1)C(O)c1cc(Cl)cc2[nH]ncc12 (stereo not drawn) [Compound P-0073, 1-(6-chloro-1H-indazol-4-yl)-2-(1-(cyclopropylsulfonyl)piperidin-4-yl)-2-methylpropan-1-ol]
0.0001 to 10	0.0001 to 10	> 10	0.0001 to 10	CC(C)(C1CCN(C(=O)Nc2cccnc2)CC1)C(O)c1cc(Cl)cc2[nH]ncc12 (stereo not drawn) [Compound P-0075, 4-(1-(6-chloro-1H-indazol-4-yl)-1-hydroxy-2-methylpropan-2-yl)-N-(pyridin-3-yl)piperidine-1-carboxamide]
